IC50 data for five compounds are collected here from BindingDB's records for doi:10.7270/Q2CR5RTC (Burnham Center For Chemical Genomics, 2010).

A value given as a limit tells only on which side of the number the result lay.

The test has as its target T1, Tyrosine-protein phosphatase non-receptor type 22 (Homo sapiens, UniProt Q9Y2R2).
T1 sequence (Q9Y2R2 whole entry): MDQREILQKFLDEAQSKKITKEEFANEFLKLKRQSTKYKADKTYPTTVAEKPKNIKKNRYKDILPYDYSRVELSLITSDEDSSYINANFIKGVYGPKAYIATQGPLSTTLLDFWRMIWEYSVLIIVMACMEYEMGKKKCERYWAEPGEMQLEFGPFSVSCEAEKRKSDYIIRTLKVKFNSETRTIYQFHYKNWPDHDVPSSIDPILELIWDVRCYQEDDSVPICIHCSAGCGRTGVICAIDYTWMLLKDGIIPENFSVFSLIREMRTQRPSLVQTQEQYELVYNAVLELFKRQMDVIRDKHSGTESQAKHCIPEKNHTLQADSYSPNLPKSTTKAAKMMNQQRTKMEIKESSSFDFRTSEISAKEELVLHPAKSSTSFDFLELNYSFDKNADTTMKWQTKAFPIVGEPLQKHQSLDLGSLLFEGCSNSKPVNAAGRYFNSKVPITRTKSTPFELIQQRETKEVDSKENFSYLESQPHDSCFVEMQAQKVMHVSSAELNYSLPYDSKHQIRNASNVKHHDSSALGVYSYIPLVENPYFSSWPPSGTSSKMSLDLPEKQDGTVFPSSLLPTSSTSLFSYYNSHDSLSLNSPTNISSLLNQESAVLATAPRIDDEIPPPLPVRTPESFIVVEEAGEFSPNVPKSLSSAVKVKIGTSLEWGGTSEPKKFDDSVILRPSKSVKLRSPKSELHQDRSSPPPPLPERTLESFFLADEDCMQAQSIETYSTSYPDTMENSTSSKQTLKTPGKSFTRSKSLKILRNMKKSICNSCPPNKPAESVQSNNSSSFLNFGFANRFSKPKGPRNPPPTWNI
Put plainly: LYP phosphatase inhibitors, dose response, biochemical, fluorescence intensity, uHTS hits, set 2 (AID 435024).
As to `O=C1C([N+](=O)[O-])=CC(Br)=CC1/C=N/n1cnnc1` (stereo not given) [MLS000714804], the IC50 – broadly, the midpoint of a concentration-inhibition curve – was above 79.4 µM. `Cc1ccc(NN=C2C(=O)N(CN3CCOCC3)c3ccccc32)cc1` [(3Z)-3-[(4-methylphenyl)hydrazinylidene]-1-(4-morpholinylmethyl)-2-indolone]: the IC50 is above 79.4 µM. The result for `N=C(NN=Cc1ccc2c(c1)OCO2)Sc1cc(O)n(-c2ccc(C(=O)O)cc2)c1O` [4-(3-{[[(2E)-2-(1,3-benzodioxol-5-ylmethylene)hydrazino](imino)methyl]thio}-2,5-dioxopyrrolidin-1-yl)benzoic acid] reads 8.58 µM; that for `COC1=CC=CC(/C=N/NC(=O)c2cc3cc([N+](=O)[O-])ccc3s2)C1=O` (stereo not given) [SMR000237814], 13.1 µM; that for `CCOC(=O)NC(=O)C(C=Nc1ccc(C)cc1)C(=O)NC(=O)OCC` [ethyl 2-{[(ethoxycarbonyl)amino]carbonyl}-3-(4-toluidino)acryloylcarbamate], above 79.4 µM.
